The assay has as its system B6C3F1 mice, Lewis lung carcinoma iv, survival T/C. Put plainly: NCI In Vivo Anticancer Drug Screen. Data for tumor model Lewis Lung Carcinoma (intravenous) in B6C3F1 mice. Particulars: endpoint: median survival time, higher = longer survival. In outline: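 Read-out is survival, expressed as the treated-group measurement over the vehicle control-group measurement. Animals bore a transplantable tumor and were given compound.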

[1] abbreviates: dose: 1.0 mg/kg/injection, schedule: Q01DX009 (ip), vehicle: saline with Tween-80.
The mark [2] stands for this setting: dose: 2.0 mg/kg/injection, schedule: Q01DX009 (ip), vehicle: saline with Tween-80.
[3] abbreviates: dose: 4.0 mg/kg/injection, schedule: Q01DX009 (ip), vehicle: saline with Tween-80.
Setting [4] is: dose: 25.0 mg/kg/injection, schedule: Q01DX009 (ip), vehicle: saline.
Where [5] appears, read: dose: 50.0 mg/kg/injection, schedule: Q01DX009 (ip), vehicle: saline.
The mark [6] stands for this setting: dose: 100.0 mg/kg/injection, schedule: Q01DX009 (ip), vehicle: saline.
Where [7] appears, read: dose: 200.0 mg/kg/injection, schedule: Q01DX009 (ip), vehicle: saline.
The mark [8] stands for this setting: dose: 12.5 mg/kg/injection, schedule: Q01DX009 (ip), vehicle: saline with Tween-80.
Where [9] appears, read: dose: 25.0 mg/kg/injection, schedule: Q01DX009 (ip), vehicle: saline with Tween-80.
Where [10] appears, read: dose: 50.0 mg/kg/injection, schedule: Q01DX009 (ip), vehicle: saline with Tween-80.
The mark [11] stands for this setting: dose: 100.0 mg/kg/injection, schedule: Q01DX009 (ip), vehicle: saline with Tween-80.
Setting [12] is: dose: 200.0 mg/kg/injection, schedule: Q01DX009 (ip), vehicle: saline with Tween-80.
Where [13] appears, read: dose: 12.5 mg/kg/injection, schedule: Q01DX009 (ip), vehicle: saline.
[14] abbreviates: dose: 50.0 mg/kg/injection, schedule: Q01DX009 (ip), vehicle: Klucel (hydroxypropylcellulose) (HPC).
The mark [15] stands for this setting: dose: 100.0 mg/kg/injection, schedule: Q01DX009 (ip), vehicle: Klucel (hydroxypropylcellulose) (HPC).

“And” between values parts separate entries of the source, which are not always exact repeats. Identical values can stand only once. Toxic doses and inconclusive results are not listed.

As to `CC1=C[S+](c2ccccc2)c2cccc3cc4ccccc4c1c23` (configuration not stated), the T/C was 106 % of control (dose: 0.12 mg/kg/injection, schedule: Q01DX009 (ip), vehicle: saline with Tween-80); 113 % of control (dose: 0.25 mg/kg/injection, schedule: Q01DX009 (ip), vehicle: saline with Tween-80); 95 % of control (dose: 0.5 mg/kg/injection, schedule: Q01DX009 (ip), vehicle: saline with Tween-80); 100 % of control under setting [1]; 106 % of control under setting [2]; 101 % of control under setting [3].
In the case of `O=C1NC(=O)NC(C(=O)O)N1`, the T/C was 101 % of control (dose: 50.0 mg/kg/injection, schedule: Q01DX009 (ip), vehicle: DMSO); 105 % of control (dose: 100.0 mg/kg/injection, schedule: Q01DX009 (ip), vehicle: DMSO); 98 % of control (dose: 200.0 mg/kg/injection, schedule: Q01DX009 (ip), vehicle: DMSO); 110 % of control (dose: 400.0 mg/kg/injection, schedule: Q01DX009 (ip), vehicle: DMSO).
On to `CC1=NN(c2cccc(S(=O)(=O)O)c2)C(=O)C1N=Nc1cc(Cl)cc(S(=O)(=O)O)c1O.CC1=NN(c2cccc(S(=O)(=O)O)c2)C(=O)C1N=Nc1cc(Cl)cc(S(=O)(=O)O)c1O.[Cr]` (configuration not stated), for which the T/C is, setting by setting: under setting [4], 92 % of control; under setting [5], 100 % of control; under setting [6], 98 % of control; under setting [7], 98 % of control.
`CCCCOCN(COCCCC)C12CC3CC(CC(C3)C1)C2`: the T/C under setting [8] is 101 % of control; the T/C under setting [9] was 111 % of control; the T/C under setting [10] was 97 % of control; the T/C under setting [11] was 106 % of control; the T/C under setting [12] was 100 % of control.
Regarding `COc1cccc2c1C(=N)c1c(O)c3c(c(O)c1C2=O)C[C@@](O)(C(C)=O)C[C@@H]3OC1CC(N)C(O)C(C)O1` (some centres not stated), the T/C by setting is: (dose: 1.0 mg/kg/injection, schedule: Q01DX009 (ip), vehicle: saline) 103 % of control; (dose: 2.0 mg/kg/injection, schedule: Q01DX009 (ip), vehicle: saline) 96 % of control; (dose: 4.0 mg/kg/injection, schedule: Q01DX009 (ip), vehicle: saline) 105 % of control.
As for `OCC12COCN1COC2`, the T/C runs as follows: under setting [13], 103 % of control and 104 % of control; under setting [4], 98 % of control and 101 % of control; under setting [5], 100 % of control and 106 % of control; under setting [6], 97 % of control and 102 % of control; under setting [7], 98 % of control; (dose: 400.0 mg/kg/injection, schedule: Q01DX009 (ip), vehicle: saline) 104 % of control and 112 % of control.
Take `O=[N+]([O-])c1ccc(Sc2ccncn2)c([N+](=O)[O-])c1`: the T/C runs as follows: (dose: 6.25 mg/kg/injection, schedule: Q01DX009 (ip), vehicle: saline with Tween-80) 90 % of control; under setting [8], 102 % of control; under setting [9], 95 % of control; under setting [10], 86 % of control; under setting [11], 99 % of control.
For `O=P1(N(CCCl)CCCl)NCCCO1` (configuration not stated), the T/C by setting is: (dose: 6.0 mg/kg/injection, schedule: Q01DX009 (ip), vehicle: saline) 105 % of control; (dose: 6.25 mg/kg/injection, schedule: Q01DX009 (ip), vehicle: saline) 108 % of control; (dose: 12.0 mg/kg/injection, schedule: Q01DX009 (ip), vehicle: saline) 116 % of control; under setting [13], 123 % of control; (dose: 25.0 mg/kg/injection, schedule: Q01DX001 (ip), vehicle: saline) 110 % of control; under setting [4], 191 % of control. The T/C reads like this: (dose: 37.0 mg/kg/injection, schedule: Q01DX001 (ip), vehicle: saline) 120 % of control; (dose: 48.4 mg/kg/injection, schedule: Q01DX001 (ip), vehicle: saline) 103 % of control; (dose: 50.0 mg/kg/injection, schedule: Q01DX001 (ip), vehicle: saline) 116 % of control and 122 % of control; under setting [5], 337 % of control; (dose: 64.4 mg/kg/injection, schedule: Q01DX001 (ip), vehicle: saline) 115 % of control; (dose: 75.0 mg/kg/injection, schedule: Q01DX001 (ip), vehicle: saline) 171 % of control. In addition, the T/C runs as follows: (dose: 100.0 mg/kg/injection, schedule: Q01DX001 (ip), vehicle: saline) 151 % of control and 152 % of control and 188 % of control; (dose: 150.0 mg/kg/injection, schedule: Q01DX001 (ip), vehicle: saline) 349 % of control; (dose: 300.0 mg/kg/injection, schedule: Q01DX001 (ip), vehicle: saline) 230 % of control; (dose: 400.0 mg/kg/injection, schedule: Q01DX001 (ip), vehicle: saline) 312 % of control.
`O=C(O)c1cc(Cc2ccc(O)c(C(=O)O)c2)ccc1O` (tested in a mixture with another compound): the T/C runs as follows: (dose: 6.25 mg/kg/injection, schedule: Q01DX009 (ip), vehicle: Klucel (hydroxypropylcellulose) (HPC)) 107 % of control; (dose: 12.5 mg/kg/injection, schedule: Q01DX009 (ip), vehicle: Klucel (hydroxypropylcellulose) (HPC)) 97 % of control; (dose: 25.0 mg/kg/injection, schedule: Q01DX009 (ip), vehicle: Klucel (hydroxypropylcellulose) (HPC)) 101 % of control; under setting [14], 97 % of control; under setting [15], 95 % of control.
As for `C[CH2][Pb]([CH2]C)([CH2]C)[O]C(=O)COc1ccccc1`, the T/C by setting is: (dose: 0.08 mg/kg/injection, schedule: Q01DX009 (ip), vehicle: saline with Tween-80) 107 % of control; (dose: 0.15 mg/kg/injection, schedule: Q01DX009 (ip), vehicle: saline with Tween-80) 99 % of control; (dose: 0.3 mg/kg/injection, schedule: Q01DX009 (ip), vehicle: saline with Tween-80) 99 % of control; (dose: 0.6 mg/kg/injection, schedule: Q01DX009 (ip), vehicle: saline with Tween-80) 109 % of control; (dose: 1.2 mg/kg/injection, schedule: Q01DX009 (ip), vehicle: saline with Tween-80) 108 % of control.
Turning to `NC(Cc1ccc(N(CCCl)CCCl)cc1)C(=O)O` (configuration not stated), the T/C under setting [1] is 98 % of control; the T/C under setting [2] is 100 % of control; the T/C under setting [3] was 104 % of control; the T/C (dose: 16.0 mg/kg/injection, schedule: Q01DX009 (ip), vehicle: saline with Tween-80) is 101 % of control.
For `CCCCOCN(COCCCC)C(C)Cc1ccccc1` (configuration not stated), the T/C by setting is: under setting [8], 96 % of control; under setting [9], 107 % of control; under setting [10], 104 % of control; under setting [11], 92 % of control; under setting [12], 89 % of control.
On to `C=C1C(=O)OC2/C=C(\C)CC(O)/C=C(/CO)CC(OC(=O)/C(C)=C/C)C12` (configuration not stated), for which the T/C is 91 % of control (dose: 15.0 mg/kg/injection, schedule: Q01DX009 (ip), vehicle: saline with Tween-80) and 101 % of control (dose: 30.0 mg/kg/injection, schedule: Q01DX009 (ip), vehicle: saline with Tween-80).
On to `CCCCCCCCCCCCCCCCCCOCC(COP(=O)([O-])OCC[N+](C)(C)C)OC` (configuration not stated), for which the T/C (dose: 6.25 mg/kg/injection, schedule: Q01DX009 (ip), vehicle: suspension in saline) is 96 % of control; the T/C (dose: 12.5 mg/kg/injection, schedule: Q01DX009 (ip), vehicle: suspension in saline) was 99 % of control; the T/C (dose: 25.0 mg/kg/injection, schedule: Q01DX009 (ip), vehicle: suspension in saline) is 100 % of control.
For `Cc1ccc(S(=O)(=O)OCOS(=O)(=O)c2ccc(C)cc2)cc1`, the T/C by setting is: under setting [14], 107 % of control; under setting [15], 103 % of control; (dose: 200.0 mg/kg/injection, schedule: Q01DX009 (ip), vehicle: Klucel (hydroxypropylcellulose) (HPC)) 108 % of control; (dose: 400.0 mg/kg/injection, schedule: Q01DX009 (ip), vehicle: Klucel (hydroxypropylcellulose) (HPC)) 117 % of control.
